Measured values: PubChem BioAssay AID1259407 (Chemical Carcinogenesis Research Information System (CCRIS), 2018)
The source made the active and inactive calls. How the calls were made is not given here.

Test system: CCRIS mutagenicity, Ames/micronucleus/aberration tests
Experiment: CCRIS mutagenicity studies
[1] = Test System: AMES SALMONELLA TYPHIMURIUM, Strain/Indicator: TA100, Metabolic Activation: NONE, Method: STANDARD PLATE

## COC(=O)[C@H]1O[C@H]1c1ccccc1
[1]
  mutagenic call: active; positive

## O=S(=O)(O)c1ccc(N=Nc2c(O)ccc3cc(S(=O)(=O)O)ccc23)cc1
End Point: IN VITRO CHROMOSOMAL ABERRATIONS, Test System: CHO CELLS, Metabolic Activation: NONE
  mutagenic call: inactive; negative
End Point: IN VITRO CHROMOSOMAL ABERRATIONS, Test System: CHO CELLS, Metabolic Activation: RAT, LIVER, S-9, AROCLOR 1254
  mutagenic call: inactive; negative
Test System: AMES SALMONELLA TYPHIMURIUM, Strain/Indicator: TA97, Metabolic Activation: HAMSTER, LIVER, S-9, AROCLOR 1254 (10%), Method: PREINCUBATION
  mutagenic call: inactive; negative
Test System: AMES SALMONELLA TYPHIMURIUM, Strain/Indicator: TA97, Metabolic Activation: HAMSTER, LIVER, S-9, AROCLOR 1254 (30%), Method: PREINCUBATION
  mutagenic call: inactive; negative
Test System: AMES SALMONELLA TYPHIMURIUM, Strain/Indicator: TA97, Metabolic Activation: NONE, Method: PREINCUBATION
  mutagenic call: inactive; negative
Test System: AMES SALMONELLA TYPHIMURIUM, Strain/Indicator: TA97, Metabolic Activation: RAT, LIVER, S-9, AROCLOR 1254 (10%), Method: PREINCUBATION
  mutagenic call: inactive; negative
Test System: AMES SALMONELLA TYPHIMURIUM, Strain/Indicator: TA97, Metabolic Activation: RAT, LIVER, S-9, AROCLOR 1254 (30%), Method: PREINCUBATION
  mutagenic call: inactive; negative
Test System: AMES SALMONELLA TYPHIMURIUM, Strain/Indicator: TA98, Metabolic Activation: HAMSTER, LIVER, S-9, AROCLOR 1254 (10%), Method: PREINCUBATION
  mutagenic call: inactive; negative
Test System: AMES SALMONELLA TYPHIMURIUM, Strain/Indicator: TA98, Metabolic Activation: HAMSTER, LIVER, S-9, AROCLOR 1254 (30%), Method: PREINCUBATION
  mutagenic call: inactive; negative
Test System: AMES SALMONELLA TYPHIMURIUM, Strain/Indicator: TA98, Metabolic Activation: NONE, Method: PREINCUBATION
  mutagenic call: inactive; negative
Test System: AMES SALMONELLA TYPHIMURIUM, Strain/Indicator: TA98, Metabolic Activation: NONE, Method: STANDARD PLATE
  mutagenic call: inactive; negative
Test System: AMES SALMONELLA TYPHIMURIUM, Strain/Indicator: TA98, Metabolic Activation: RAT LIVER S-9, AROCLOR 1254, Method: STANDARD PLATE
  mutagenic call: inactive; negative
Test System: AMES SALMONELLA TYPHIMURIUM, Strain/Indicator: TA98, Metabolic Activation: RAT, LIVER, S-9, AROCLOR 1254 (10%), Method: PREINCUBATION
  mutagenic call: inactive; negative
Test System: AMES SALMONELLA TYPHIMURIUM, Strain/Indicator: TA98, Metabolic Activation: RAT, LIVER, S-9, AROCLOR 1254 (30%), Method: PREINCUBATION
  mutagenic call: inactive; negative
Test System: AMES SALMONELLA TYPHIMURIUM, Strain/Indicator: TA98, Metabolic Activation: RAT, LIVER, S-9, PHENOBARBITAL, Method: PREINCUBATION
  mutagenic call: inactive; negative
Test System: AMES SALMONELLA TYPHIMURIUM, Strain/Indicator: TA100, Metabolic Activation: HAMSTER, LIVER, S-9, AROCLOR 1254 (10%), Method: PREINCUBATION
  mutagenic call: inactive; negative
Test System: AMES SALMONELLA TYPHIMURIUM, Strain/Indicator: TA100, Metabolic Activation: HAMSTER, LIVER, S-9, AROCLOR 1254 (30%), Method: PREINCUBATION
  mutagenic call: inactive; negative
Test System: AMES SALMONELLA TYPHIMURIUM, Strain/Indicator: TA100, Metabolic Activation: NONE, Method: PREINCUBATION
  mutagenic call: inactive; negative
[1]
  mutagenic call: inactive; negative
Test System: AMES SALMONELLA TYPHIMURIUM, Strain/Indicator: TA100, Metabolic Activation: RAT LIVER S-9, AROCLOR 1254, Method: STANDARD PLATE
  mutagenic call: inactive; negative
Test System: AMES SALMONELLA TYPHIMURIUM, Strain/Indicator: TA100, Metabolic Activation: RAT, LIVER, S-9, AROCLOR 1254 (10%), Method: PREINCUBATION
  mutagenic call: inactive; negative
Test System: AMES SALMONELLA TYPHIMURIUM, Strain/Indicator: TA100, Metabolic Activation: RAT, LIVER, S-9, AROCLOR 1254 (30%), Method: PREINCUBATION
  mutagenic call: inactive; negative
Test System: AMES SALMONELLA TYPHIMURIUM, Strain/Indicator: TA100, Metabolic Activation: RAT, LIVER, S-9, PHENOBARBITAL, Method: PREINCUBATION
  mutagenic call: inactive; negative
Test System: AMES SALMONELLA TYPHIMURIUM, Strain/Indicator: TA1535, Metabolic Activation: HAMSTER, LIVER, S-9, AROCLOR 1254 (10%), Method: PREINCUBATION
  mutagenic call: inactive; negative
Test System: AMES SALMONELLA TYPHIMURIUM, Strain/Indicator: TA1535, Metabolic Activation: HAMSTER, LIVER, S-9, AROCLOR 1254 (30%), Method: PREINCUBATION
  mutagenic call: inactive; negative
Test System: AMES SALMONELLA TYPHIMURIUM, Strain/Indicator: TA1535, Metabolic Activation: NONE, Method: PREINCUBATION
  mutagenic call: inactive; negative
Test System: AMES SALMONELLA TYPHIMURIUM, Strain/Indicator: TA1535, Metabolic Activation: RAT, LIVER, S-9, AROCLOR 1254 (10%), Method: PREINCUBATION
  mutagenic call: inactive; negative
Test System: AMES SALMONELLA TYPHIMURIUM, Strain/Indicator: TA1535, Metabolic Activation: RAT, LIVER, S-9, AROCLOR 1254 (30%), Method: PREINCUBATION
  mutagenic call: inactive; negative
